How the values were obtained:
[1] = target: T1, RXRγ (UniProt P28705); assay: holoreceptor transactivation assay, RXRγ; type: cell-based; settings: for EC50: holoreceptor transactivation, read-out: RXR Trans. EC50 γ; for RXR Trans. efficacy (number in parentheses) γ: percentage compared to the standard compound
T1 sequence (P28705 1-463): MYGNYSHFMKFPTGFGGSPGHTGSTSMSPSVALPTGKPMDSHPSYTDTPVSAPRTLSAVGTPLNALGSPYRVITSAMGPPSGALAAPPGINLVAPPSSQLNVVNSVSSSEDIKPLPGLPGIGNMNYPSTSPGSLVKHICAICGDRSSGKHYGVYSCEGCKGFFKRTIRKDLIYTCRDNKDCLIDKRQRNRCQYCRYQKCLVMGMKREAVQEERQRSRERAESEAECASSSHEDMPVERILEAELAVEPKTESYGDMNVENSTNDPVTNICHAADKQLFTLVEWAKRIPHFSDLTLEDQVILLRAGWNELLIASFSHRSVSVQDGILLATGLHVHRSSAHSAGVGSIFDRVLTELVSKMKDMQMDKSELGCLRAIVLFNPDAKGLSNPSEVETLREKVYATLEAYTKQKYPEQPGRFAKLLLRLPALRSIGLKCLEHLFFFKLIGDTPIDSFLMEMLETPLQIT
Method in brief: (§1)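 RXR activation measured in holoreceptor transactivation assays; RAR subtypes in chimeric receptor transactivation assays. Values are EC50 in nM, with efficacy as percentage of maximal activity of a reference cyclopropyl-pentadienoic acid RXR agonist.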

[2] = target: T2, RXRα (Homo sapiens, UniProt P19793); assay: ligand binding assay, RXRα; settings: Table 9 (Formula F); read-out: RXR α Kd
T2 construct: expressed in transfected cells
T2 sequence (P19793 1-462): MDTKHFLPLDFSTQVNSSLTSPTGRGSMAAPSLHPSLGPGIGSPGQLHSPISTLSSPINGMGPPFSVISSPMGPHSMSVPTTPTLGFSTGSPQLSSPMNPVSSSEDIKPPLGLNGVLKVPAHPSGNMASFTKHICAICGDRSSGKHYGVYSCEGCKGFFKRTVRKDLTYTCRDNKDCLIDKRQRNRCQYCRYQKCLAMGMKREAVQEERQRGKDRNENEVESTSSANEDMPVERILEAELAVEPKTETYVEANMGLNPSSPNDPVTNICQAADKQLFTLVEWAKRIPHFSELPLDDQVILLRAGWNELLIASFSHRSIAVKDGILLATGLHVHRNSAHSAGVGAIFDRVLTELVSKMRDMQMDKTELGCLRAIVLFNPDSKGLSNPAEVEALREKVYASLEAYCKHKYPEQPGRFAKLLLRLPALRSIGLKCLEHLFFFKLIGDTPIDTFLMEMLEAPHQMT
Method in brief: (§2)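 Binding of compounds to several retinoid receptor subtypes was measured. Results are given as Ki values in nanomolar concentration, derived per Cheng et al.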

[3] = target: T3, RXRβ (UniProt P28704); assay: ligand binding assay, RXRβ; settings: Table 9 (Formula F); read-out: RXR β Kd
T3 sequence (P28704 1-520): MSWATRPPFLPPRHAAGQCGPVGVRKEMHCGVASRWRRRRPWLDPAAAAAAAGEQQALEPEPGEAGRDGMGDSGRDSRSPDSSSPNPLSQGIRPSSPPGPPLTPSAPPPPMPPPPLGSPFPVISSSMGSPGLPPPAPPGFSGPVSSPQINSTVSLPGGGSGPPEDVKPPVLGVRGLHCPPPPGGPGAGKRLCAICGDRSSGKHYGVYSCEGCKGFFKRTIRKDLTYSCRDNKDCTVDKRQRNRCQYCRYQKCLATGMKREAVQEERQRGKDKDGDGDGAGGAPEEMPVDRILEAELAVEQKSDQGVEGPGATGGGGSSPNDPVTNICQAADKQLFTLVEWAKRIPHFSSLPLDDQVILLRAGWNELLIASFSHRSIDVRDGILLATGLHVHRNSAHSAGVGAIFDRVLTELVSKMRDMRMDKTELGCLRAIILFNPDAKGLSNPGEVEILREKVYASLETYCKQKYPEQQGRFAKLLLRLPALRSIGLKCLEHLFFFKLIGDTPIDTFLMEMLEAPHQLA
Method in brief: as §2

[4] = target: T3, RXRβ; assay: holoreceptor transactivation assay, RXRβ; type: cell-based; settings: for EC50: holoreceptor transactivation, read-out: RXR Trans. EC50 β; for RXR Trans. efficacy (number in parentheses) β: percentage compared to the standard compound
Method in brief: as §1

Row | EC50 [1] [pM] | RXR Trans. efficacy (number in parentheses) γ [1] [%] | Kd [2] [pM] | Kd [3] [pM] | EC50 [4] [pM] | RXR Trans. efficacy (number in parentheses) β [4] [%] | SMILES
1 | 200 | 73 | 2000 | 12000 | 500 | 66 | CCOc1c(\C(C)=C(F)/C=C/C(C)=C/C(=O)O)cc2c(c1Cl)C(C)(C)CC=C2C(C)C [Compound A-177, (2E,4E,6E)-7-(4-Chloro-3-ethoxy-8-isopropyl-5,5-dimethyl-5,6-dihydronaphthalen-2-yl)6-fluoro-3-methyl-octa-2,4,6-trienoic acid]
2 | 300 | 46 | 1000 | 11000 | 500 | 53 | CCOc1c(\C(CC)=C(F)/C=C/C(C)=C/C(=O)O)cc2c(c1Cl)C(C)(C)CC=C2C(C)C [Compound A-178, (2E,4E,6E)-7-(4-Chloro-3-ethoxy-8-isopropyl-5,5-dimethyl-5,6-dihydronaphthalen-2-yl)-6-fluoro-3-methyl-nona-2,4,6-trienoic acid]

— patent US6887896B1, “7-[(7-Alkoxy)-chrom-3-en-6-yl]-heptatrienoic acid and 7-[(3-alkoxy)-5,6-dihydronaphthalen-2-yl]-heptatrienoic acid derivatives having serum glucose reducing activity” (Allergan, Inc., priority 2003, dated 2005)
